Reference: patent US20230323373A1, “SPRAYABLE CELL-PENETRATING PEPTIDES FOR SUBSTANCE DELIVERY IN PLANTS” (BASF Plant Science Company GmbH, priority 2020, published 2023)
Square brackets hold non-standard residues; d marks the D form. Ends that are not written are not given here.

Columns and labels:
Arabidopsis leaf = test: Translocation of sprayed TAMRA-CPPs into Arabidopsis leaf cells (CLSM fluorescence); type: in vivo, Arabidopsis thaliana; details: for cell penetrating efficiency: epidermal cells, TAMRA-labelled CPP 1 mg/L in water, compared with KH9 and R9
Text: Cell-penetrating peptides (CPPs), also called protein transduction domains, are short peptides that facilitate the transport of cargo molecules through membranes to gain access to the cells. In many cases, CPPs are coupled to cargo molecules through covalent conjugation, forming CPP-cargo complexes. To date, DNA, RNA, nanomaterials and proteins such as antibodies were reported as cargo molecules. Most studies of the complex of CPPs and protein have contributed to the applications in mammalian cells, whereas only very limited studies have focused on plant cells. […] The plant cells are mainly containing cellulose, hemicellulose and pectin. […] BP100 (KKLFKKILKYL—SEQ ID NO: 7) is an amphiphilic peptide and has CPP function. KH9 (KHKHKHKHKHKHKHKHKH—SEQ ID NO: 10), R9 (RRRRRRRRR SEQ ID NO: 8), and D-R9 (rrrrrrrrr, D-form of R9 - SEQ ID NO: 9) are peptides containing both CPP and cationic biomolecule binding functions. BP100(KH)9 ([…]—SEQ ID NO: 11) and BP100CH7 ([…]—SEQ ID NO: 12) are fusion peptides containing CPP and cationic sequences which are designed as stimulus-response peptides and could release the cargo molecules (peptides, protein, RNA, DNA) into the cytoplasm. KAibA(KH)9, K-alpha-aminoisobutyric acid (AibA)-AKHKHKHKHKHKHKHKHKH, and KAibA(D-R9), K-alpha-aminoisobutyric acid (AibA)-Arrrrrrrrr are synthetic peptides and containing both CPP and cationic biomolecule binding functions. KAibA (U.S. Ser. No. 16/832,749) was chemoenzymatically synthesized using the polymerization reaction (ACS Biomater. Sci. Eng. 2020, 6, 6, 3287-3298). TAMRA-CPPs are CPPs that labeled by fluorescent molecule 5-carboxytetramethylrhodamine (TAMRA) at the C-terminal end and were used for optimization of various conditions. For the labelling of CPP with TAMRA, the amino acids in Boc-CPPs were deprotected using tri-fluoroacetic acid (TFA). A solution of tetramethylrhodamine-5-isothiocyanate in dimethyl sulfoxide (DMSO) was added to CPP solutions and kept stirring at 25° C. for 14 h. The solution was centrifuged at maximum speed at 4° C. for 60 minutes and the precipitate was washed with Milli-Q water. After lyophilizing, a pink solid was obtained. Dried precipitate of TAM RA-CPP was re-suspended with Milli-q and the TAMRA-CPP solution was kept at 1.0 mg/mL concentration in −80° C. Plasmid DNA that contains expression cassette of reporter gene such as GUS (SEQ ID NO: 1), GFP (SEQ ID NO: 2), DsRed (SEQ ID NO: 3), and Renilla luciferase (Rluc—SEQ ID NO: 4) was used to detect successful delivery into plant cells. […]
Each TAMRA-CPP was adjusted as concentration at 1 mg/L in water. […] Leaf surface was washed three times with water after 30, 90 and 150 min post spraying, and the intensity of fluorescence was measured by CLSM imaging analysis (FIG. 2A). […]

soybean leaves = test: Translocation of sprayed TAMRA-CPPs into soybean leaves (fluorescence imaging); type: in vivo, Glycine max; details: for cell penetrating efficiency: soybean leaves, in general
Experimental: Seeds of soybean (Glycine max) cultivars Enrei, William-82, and Peking, were germinated between germination papers that has been moistened with tap water. Then the seeds with papers were placed in a plastic bag and incubated in a growth chamber under 18 hours light/6 hours dark at 26° C. for three days. One and a quarter tea spoon of Multicoat 4 was mixed with 2 L of autoclaved sand, which was then moistened with tap water. Three days old soybean seedlings were then transplanted into containers filled with moist sand mix and incubated in the same growth chamber. Leaves from 5 weeks old plants were used for experiments.
Soybean leaves are different in both architecture and leaf chemical components. We further examined the translocation efficiency of highly efficient native CPP sequences in soybean leaves. Leaves from 5 weeks old plants were used for the experiment. Solutions containing 1.0 mg/mL of natural TAMRA-CPP; TAMRA-BP100, TAMRA-KH9, TAMRA-R9, and TAMRA-D-R9 were sprayed on soybean leaves of 3 different cultivars (Enrei, Peking, and William-82) and incubated for 30 min, 90 min, and 150 min (FIG. 3A). The fluorescence imaging and image analysis were conducted to determine the translocation efficiency of these CPPs to plant leaves. […] Different soybean cultivars responded differently to the translocation of CPPs to plant cells.
We tried to determine the efficiency of artificial CPPs containing Aib to soybean leaves using spraying. KAibA, KAibK, and KAibG were synthesized and labelled with TAMRA as described in Example 1. The solutions containing 1 mg/mL of these artificial TAMRA-CPPs were sprayed to fully expanded leaves of 5-weeks old soybean cultivar Enrei and the fluorescence imaging was carried out at 30 min, 90 min, and 150 min after spraying. […] However, the average fluorescent intensity in TAMRA-KAibA-treated soybean leaves was lower than that previously achieved by TAMRA-D-R9 (FIG. 3B and C).

Substance	depth of penetration and persistence in tissue (Arabidopsis leaf; Arabidopsis leaf, summary)	cell penetrating efficiency (Arabidopsis leaf)	penetrating efficiency (Arabidopsis leaf; mesophyll cells)	cell penetrating effect (soybean leaves; cultivar Peking)	cell penetrating efficiency (soybean leaves)
rrrrrrrrr ([dR][dR][dR][dR][dR][dR][dR][dR][dR]) [D-R9]	able to penetrate deep inside of the tissue and stay longer without degradation	higher cell penetrating efficiency	highest penetrating efficiency	most efficient cell penetrating effect	higher cell penetrating efficiency
KKLFKKILKYL (BP100)	–	higher cell penetrating efficiency	–	–	higher cell penetrating efficiency
